Measured values: US9115143B2, “Substituted indole derivatives as gamma secretase modulators” (Janssen Pharmaceuticals, Inc., priority 2011, dated 2015)

How the values were obtained:
[1] = system: Aβ42; assay: In vivo efficacy B-1a: brain soluble Aβ42 in non-transgenic rodents, ELISA; parameters: species or system mouse; conditions: dose 30 mg/kg oral dosing, brain soluble fraction, untreated animals (Ctrl) set at 100; for response vs control in vivo at 30 mg/kg: Mus musculus, po, read-out: Aβ42 (% vs Ctrl)_Mean; for Aβ42 (% vs Ctrl)_Mean: 30 mg/kg
Source text: (§1) To determine whether acute administration of an Aβ42 lowering agent would reduce Aβ42 levels in vivo, non-transgenic rodents, e.g. mice or rats were used. Animals treated with the Aβ42 lowering agent were examined and compared to those untreated or treated with vehicle and brain levels of soluble Aβ42 and total Aβ were quantitated by standard techniques, for example, using ELISA. Treatment periods varied from hours (h) to days and were adjusted based on the results of the Aβ42 lowering once a time course of onset of effect could be established.
(§2) A typical protocol for measuring Aβ42 lowering in vivo is shown but it is only one of many variations that could be used to optimize the levels of detectable Aβ. For example, Aβ42 lowering compounds were formulated in 20% of Captisol® (a sulfobutyl ether of β-cyclodextrin) in water or 20% hydroxypropyl β cyclodextrin. The Aβ42 lowering agents were administered as a single oral dose or by any acceptable route of administration to overnight fasted animals. After 4 h, the animals were sacrificed and Aβ42 levels were analysed.
(§3) Blood was collected by decapitation and exsanguinations in EDTA-treated collection tubes. Blood was centrifuged at 1900 g for 10 minutes (min) at 4° C. and the plasma recovered and flash frozen for later analysis. The brain was removed from the cranium and hindbrain. The cerebellum was removed and the left and right hemisphere were separated. The left hemisphere was stored at −18° C. for quantitative analysis of test compound levels. The right hemisphere was rinsed with phosphate-buffered saline (PBS) buffer and immediately frozen on dry ice and stored at −80° C. until homogenization for biochemical assays.
(§4) Mouse brains from non-transgenic animals were resuspended in 8 volumes of 0.4% DEA (diethylamine)/50 mM NaCl containing protease inhibitors (Roche-11873580001 or 04693159001) per gram of tissue, e.g. for 0.158 g brain, add 1.264 mL of 0.4% DEA. All samples were homogenized in the FastPrep-24 system (MP Biomedicals) using lysing matrix D (MPBio #6913-100) at 6 m/s for 20 seconds. Homogenates were centrifuged at 20800×g for 5 min and supernatants collected. Supernatants were centrifuged at 221.300×g for 50 min. The resulting high speed supernatants were then transferred to fresh eppendorf tubes. Nine parts of supernatant were neutralized with 1 part 0.5 M Tris-HCl pH 6.8 and used to quantify Aβtotal and Aβ42.
To quantify the amount of Aβtotal and Aβ42 in the soluble fraction of the brain homogenates, Enzyme-Linked-Immunosorbent-Assays were used. Briefly, the standards (a dilution of synthetic Aβ1-40 and Aβ1-42, Bachem) were prepared in 1.5 mL Eppendorf tube in Ultraculture, with final concentrations ranging from 10000 to 0.3 pg/mL. The samples and standards were co-incubated with HRPO-labelled N-terminal antibody JRF/rAμ/2 for Aβ42 detection and with the biotinylated mid-domain antibody 4G8 for Aβtotal detection. 50 μl of conjugate/sample or conjugate/standards mixtures were then added to the antibody-coated plate (the capture antibodies selectively recognize the C-terminal end of Aβ42, antibody JRF/cAβ42/26, for Aβ42 detection and the N-terminus of AB, antibody JRF/rAβ/2, for Aβtotal detection). The plate was allowed to incubate overnight at 4° C. in order to allow formation of the antibody-amyloid complex. Following this incubation and subsequent wash steps the ELISA for Aβ42 quantification was finished by addition of Quanta Blu fluorogenic peroxidase substrate according to the manufacturer's instructions (Pierce Corp., Rockford, Ill.). A reading was performed after 10 to 15 min (excitation 320 nm/emission 420 nm).
In this model a Aβ42 lowering compared to untreated animals would be advantageous, in particular a Aβ42 lowering with at least 10%, more in particular a Aβ42 lowering with at least 20%.
The results are shown in Table 4 (dose 30 mg/kg oral dosing) (value for untreated animals as control (Ctrl) was set at 100): […]

[2] = system: Aβ38; assay: In vivo efficacy B-2a: brain soluble Aβ38 in non-transgenic rodents, ELISA; parameters: species or system mouse; conditions: dose 30 mg/kg oral dosing, brain soluble fraction, untreated animals (Ctrl) set at 100; for response vs control in vivo at 30 mg/kg: Mus musculus, po, read-out: Aβ38 (% vs Ctrl)_Mean; for Aβ38 (% vs Ctrl)_Mean: 30 mg/kg
Source text: Aβ38 increasing agents can be administered in any standard form using any standard method. For example, but not limited to, Aβ38 increasing agents can be in the form of liquid, tablets or capsules that are taken orally or by injection.
as §1, with “Aβ38 increasing agents” for “Aβ42 lowering agent”, “increase Aβ38” for “reduce Aβ42”, “Aβ38” for “Aβ42”, “Aβ38 increase” for “Aβ42 lowering”
as §2, with “measuring Aβ38 increase” for “measuring Aβ42 lowering”, “example, Aβ38 increasing agents” for “example, Aβ42 lowering compounds”, “The Aβ38 increasing” for “The Aβ42 lowering”, “and Aβ38” for “and Aβ42”
as §3
as §4, with “Aβ38.” for “Aβ42.”
To quantify the amount of Aβtotal and Aβ38 in the soluble fraction of the brain homogenates, Enzyme-Linked-Immunosorbent-Assays were used. Briefly, the standards (a dilution of synthetic Aβ1-40 and Aβ1-38, ANASPEC) were prepared in 1.5 mL Eppendorf tube in Ultraculture, with final concentrations ranging from 10000 to 0.3 pg/mL. The samples and standards were co-incubated with HRPO-labelled N-terminal antibody for Aβ38 detection and with the biotinylated mid-domain antibody 4G8 for Aβtotal detection. 50 μl of conjugate/sample or conjugate/standards mixtures were then added to the antibody-coated plate (the capture antibodies selectively recognize the C-terminal end of Aβ38, antibody J&JPRD/Aβ38/5, for Aβ38 detection and the N-terminus of Aβ, antibody JRF/rAβ/2, for Aβtotal detection). The plate was allowed to incubate overnight at 4° C. in order to allow formation of the antibody-amyloid complex. Following this incubation and subsequent wash steps the ELISA for Aβ38 quantification was finished by addition of Quanta Blu fluorogenic peroxidase substrate according to the manufacturer's instructions (Pierce Corp., Rockford, Ill.). A reading was performed after 10 to 15 min (excitation 320 nm/emission 420 nm). […]

Compound	response vs control in vivo at 30 mg/kg [1]	response vs control in vivo at 30 mg/kg [2]	Aβ42 (% vs Ctrl)_Mean [1]	Aβ38 (% vs Ctrl)_Mean [2]
Cc1cn(-c2ccc3[nH]c(-c4nc5n(n4)CCCC5c4ccc(F)cc4C)cc3c2)cn1 (single isomer, unassigned) [Compound 77, 8-(4-fluoro-2-methylphenyl)-5,6,7,8-tetrahydro-2-[5-(4-methyl-1H-imidazol-1-yl)-1H-indol-2-yl]-[1,2,4]triazolo[1,5-a]pyridine]	104%	168%		
Cc1cc(F)ccc1C1OCCn2cc(-c3cc4nc(-c5cnn(C)c5)ccc4[nH]3)nc21 (single isomer, unassigned) [Compound 102, 8-(4-fluoro-2-methylphenyl)-5,6-dihydro-2-[5-(1-methyl-1H-pyrazol-4-yl)-1H-pyrrolo[3,2-b]pyridin-2-yl]-8H-imidazo[2,1-c][1,4]oxazine]	98%	82%		
COc1c(C#N)ccc2[nH]c(-c3nc4n(n3)CCOC4c3c(F)cccc3Cl)cc12 (single isomer, unassigned) [Compound 117, 2-[8-(2-chloro-6-fluorophenyl)-5,6-dihydro-8H-[1,2,4]triazolo[5,1-c][1,4]oxazin-2-yl]-4-methoxy-1H-indole-5-carbonitrile]	63%	106%		
Cc1cc(F)ccc1C1CCCn2nc(-c3[nH]c4ccc(C#N)cc4c3F)nc21 (single isomer, unassigned) [Compound 182, 3-fluoro-2-[8-(4-fluoro-2-methylphenyl)-5,6,7,8-tetrahydro[1,2,4]triazolo[1,5-a]pyridin-2-yl]-1H-indole-5-carbonitrile]	122%	132%		
Cc1cc(F)ccc1C1CCCn2cc(-c3cc4cc(C#N)ccc4[nH]3)nc21 (stereo not shown) [Compound 4, 2-[8-(4-fluoro-2-methylphenyl)-5,6,7,8-tetrahydroimidazo[1,2-a]pyridin-2-yl]-1H-indole-5-carbonitrile]			63 % vs Ctrl	141 % vs Ctrl
Cc1cn(-c2ccc3[nH]c(-c4nc5n(n4)CCCC5c4ccccc4C)cc3n2)cn1.Cl (stereo not shown) [Compound 5, 5,6,7,8-tetrahydro-2-[5-(4-methyl-1H-imidazol-1-yl)-1H-pyrrolo[3,2-b]pyridin-2-yl]-8-(2-methylphenyl)-[1,2,4]triazolo[1,5-a]pyridine]	106%	123%		
Cc1cc(-c2ccc3[nH]c(-c4nc5n(n4)CCCC5c4ccccc4C)cc3n2)ccn1 (stereo not shown) [Compound 6, 5,6,7,8-tetrahydro-8-(2-methylphenyl)-2-[5-(2-methyl-4-pyridinyl)-1H-pyrrolo[3,2-b]pyridin-2-yl]-[1,2,4]triazolo[1,5-a]pyridine]	79%	78%		
COc1c(C#N)ccc2[nH]c(-c3nc4n(n3)CCCC4c3ccccc3C(F)(F)F)cc12 (stereo not shown) [Compound 7, 4-methoxy-2-[5,6,7,8-tetrahydro-8-[2-(trifluoromethyl)phenyl][1,2,4]triazolo[1,5-a]pyridin-2-yl]-1H-indole-5-carbonitrile]	82%	120%		
Cc1cn(-c2ccc3[nH]c(-c4nc5n(n4)CCCC5c4ccccc4C(F)(F)F)cc3c2)cn1 (stereo not shown) [Compound 8, 5,6,7,8-tetrahydro-2-[5-(4-methyl-1H-imidazol-1-yl)-1H-indol-2-yl]-8-[2-(trifluoromethyl)phenyl]-[1,2,4]triazolo[1,5-a]pyridine]	41%	181%		
Cc1cc(F)ccc1C1CCCn2nc(-c3cc4cc(C#N)ccc4[nH]3)nc21 (stereo not shown) [Compound 9, 2-[8-(4-fluoro-2-methylphenyl)-5,6,7,8-tetrahydro[1,2,4]triazolo[1,5-a]pyridin-2-yl]-1H-indole-5-carbonitrile]			66 % vs Ctrl	87 % vs Ctrl
Cc1cc(F)ccc1C1CCCn2nc(-c3cc4cc(C#N)ccc4[nH]3)nc21 (stereo not shown) [Compound 10, 2-[8-(4-fluoro-2-methylphenyl)-5,6,7,8-tetrahydro[1,2,4]triazolo[1,5-a]pyridin-2-yl]-1H-indole-5-carbonitrile]	72%			115 % vs Ctrl
Cc1ccccc1C1CCCn2nc(-c3cc4cc(C#N)ccc4[nH]3)nc21 (stereo not shown) [Compound 12, 2-[5,6,7,8-tetrahydro-8-(2-methylphenyl)[1,2,4]triazolo[1,5-a]pyridin-2-yl]-1H-indole-5-carbonitrile]			94 % vs Ctrl	96 % vs Ctrl
Cc1ccccc1C1CCCn2nc(-c3cc4cc(C#N)ccc4[nH]3)nc21 (stereo not shown) [Compound 13, 2-[5,6,7,8-tetrahydro-8-(2-methylphenyl)[1,2,4]triazolo[1,5-a]pyridin-2-yl]-1H-indole-5-carbonitrile]	79%	116%		
N#Cc1ccc2[nH]c(-c3cn4c(n3)C(c3ccccc3Cl)CCC4)cc2c1 (stereo not shown) [Compound 16, 2-[8-(2-chlorophenyl)-5,6,7,8-tetrahydroimidazo[1,2-a]pyridin-2-yl]-1H-indole-5-carbonitrile]	74%	120%		
